Values quoted from earlier work in patent publication US8728545B2, “Extraction method for providing an organic certifiable Stevia rebaudiana extract” (Justbio Inc., priority 2010, dated 2014).
Peptide text beside a SMILES is read from it.

Key:
[1] = in water; Crammer and Ikan, 1986
[2] = for Sweetness compared to sucrose: principal steviol glycosides found in stevia leaves; for Relative sweetness among steviol glycosides (in words): comparison between glycosides, Crammer and Ikan 1986, 1987

Row | Molecule | Sweetness in Sucrose Equivalence (% SE) [1] [% SE] | Sweetness compared to sucrose [2] | Relative sweetness among steviol glycosides (in words) [2]
1 | CC1=CC(=O)[N-]S(=O)(=O)O1.[K+] [Acesulfame-K] | 11.6 | – | –
2 | COC(=O)[C@H](Cc1ccccc1)NC(=O)[C@@H](N)CC(=O)O [Aspartame] (H-Asp-Phe-OMe) | 16.0 | – | –
3 | O=S(=O)([O-])NC1CCCCC1.[Na+] [Cyclamate-Na] | 15.2 | – | –
4 | C=C1C[C@@]23CC[C@H]4[C@@](C)(CCC[C@@]4(C)C(=O)O[C@@H]4O[C@H](CO)[C@@H](O)[C@H](O)[C@H]4O)[C@@H]2CC[C@]1(O[C@@H]1O[C@H](CO)[C@@H](O)[C@H](O)[C@H]1O[C@@H]1O[C@@H](C)[C@H](O)[C@@H](O)[C@H]1O)C3 [Dulcoside A] | – | 50-120 fold | –
5 | CC1(C)[C@@H](O[C@H]2O[C@H](C(=O)O)[C@@H](O)[C@H](O)[C@H]2O[C@@H]2O[C@H](C(=O)O)[C@@H](O)[C@H](O)[C@H]2O)CC[C@]2(C)[C@H]3C(=O)C=C4[C@@H]5C[C@@](C)(C(=O)O)CC[C@]5(C)CC[C@@]4(C)[C@]3(C)CC[C@@H]12.N [Monoammonium Glycyrhisinate] | 7.3 | – | –
6 | COc1ccc(CCC(=O)c2c(O)cc(O[C@@H]3O[C@H](CO)[C@@H](O)[C@H](O)[C@H]3O[C@@H]3O[C@@H](C)[C@H](O)[C@@H](O)[C@H]3O)cc2O)cc1O [Neohesperidin Didydrochalcone] | 9.8 | – | –
7 | COC(=O)[C@H](Cc1ccccc1)NC(=O)[C@H](CC(=O)O)NCCC(C)(C)C [Neotame] | 15.1 | – | –
8 | C=C1C[C@@]23CC[C@H]4[C@@](C)(CCC[C@@]4(C)C(=O)O[C@@H]4O[C@H](CO)[C@@H](O)[C@H](O)[C@H]4O)[C@@H]2CC[C@]1(O[C@@H]1O[C@H](CO)[C@@H](O)[C@H](O[C@@H]2O[C@H](CO)[C@@H](O)[C@H](O)[C@H]2O)[C@H]1O[C@@H]1O[C@H](CO)[C@@H](O)[C@H](O)[C@H]1O)C3 [Rebaudioside A] | – | 250-450 fold | the sweetest
9 | C=C1C[C@@]23CC[C@H]4[C@@](C)(CCC[C@@]4(C)C(=O)O[C@@H]4O[C@H](CO)[C@@H](O)[C@H](O)[C@H]4O[C@@H]4O[C@H](CO)[C@@H](O)[C@H](O)[C@H]4O)[C@@H]2CC[C@]1(O[C@@H]1O[C@H](CO)[C@@H](O)[C@H](O[C@@H]2O[C@H](CO)[C@@H](O)[C@H](O)[C@H]2O)[C@H]1O[C@@H]1O[C@H](CO)[C@@H](O)[C@H](O)[C@H]1O)C3 [Rebaudioside D] | 10.1 | 240-450 fold | as sweet as rebaudioside A
10 | C=C1C[C@@]23CC[C@H]4[C@@](C)(CCC[C@@]4(C)C(=O)O[C@@H]4O[C@H](CO)[C@@H](O)[C@H](O)[C@H]4O[C@@H]4O[C@H](CO)[C@@H](O)[C@H](O)[C@H]4O)[C@@H]2CC[C@]1(O[C@@H]1O[C@H](CO)[C@@H](O)[C@H](O)[C@H]1O[C@@H]1O[C@H](CO)[C@@H](O)[C@H](O)[C@H]1O)C3 [Rebaudioside E] | – | 150-300 fold | as sweet as stevioside
11 | O=C1[N-]S(=O)(=O)c2ccccc21.[Na+] [Saccharin-Na] | 10.1 | – | –
12 | C=C1C[C@@]23CC[C@H]4[C@@](C)(CCC[C@@]4(C)C(=O)[O-])[C@@H]2CC[C@]1(O[C@@H]1O[C@@H](CO)[C@@H](O)[C@H](O)[C@@H]1O[C@@H]1O[C@@H](CO)[C@@H](O)[C@H](O)[C@@H]1O)C3.[Na+] [Steviobioside] | – | 100-125 fold | –
13 | C=C1C[C@@]23CC[C@H]4[C@@](C)(CCC[C@@]4(C)C(=O)O[C@@H]4O[C@H](CO)[C@@H](O)[C@H](O)[C@H]4O)[C@@H]2CC[C@]1(O[C@@H]1O[C@H](CO)[C@@H](O)[C@H](O)[C@H]1O[C@@H]1O[C@H](CO)[C@@H](O)[C@H](O)[C@H]1O)C3 [Stevioside] | – | 300 fold | –
14 | OC[C@H]1O[C@H](O[C@]2(CCl)O[C@H](CCl)[C@@H](O)[C@@H]2O)[C@H](O)[C@@H](O)[C@H]1Cl [Sucralose] | 13.0 | – | –
15 | Rebaudioside B | – | 300-350 fold | –
16 | Rebaudioside C | – | 50-120 fold | –
